Measurements from patent US9656962B2, “Ring-contracted morphinans and the use thereof” (Purdue Pharma L.P., priority 2013, dated 2017).

Columns and labels:
[1] = biological target: human opioid receptor-like receptor (ORL-1) (Homo sapiens (Human), UniProt P41146); assay: ORL-1 receptor radioligand binding assay ([3H]-nociceptin); conditions: binding affinity, read-out: Ki (nM) ORL-1
Method: ORL-1 Receptor Binding Assay Procedure: Membranes from recombinant HEK-293 cells expressing the human opioid receptor-like receptor (ORL-1) (Perkin Elmer, Shelton, Conn.) was prepared by lysing cells in ice-cold hypotonic buffer (2.5 mM MgCl2, 50 mM HEPES, pH 7.4) (10 ml/10 cm dish) followed by homogenization with a tissue grinder/Teflon pestle. Membranes were collected by centrifugation at 30,000×g for 15 min at 4° C. and pellets resuspended in hypotonic buffer to a final concentration of 1-3 mg/ml. Protein concentrations were determined using the BioRad protein assay reagent with bovine serum albumen as standard. Aliquots of the ORL-1 receptor membranes were stored at −80° C.
Radioligand binding assays (screening and dose-displacement) use 0.1 nM [^3H]-nociceptin (Perkin Elmer, Shelton, Conn.; 87.7 Ci/mmole) with 12 μg membrane protein in a final volume of 500 μl binding buffer (10 mM MgCl2, 1 mM EDTA, 5% DMSO, 50 mM HEPES, pH 7.4). Non-specific binding was determined in the presence of […] unlabeled nociceptin (American Peptide Company). […] Fifty μl/well scintillation cocktail (Perkin Elmer, Shelton, Conn.) was added and plates are counted in a Packard Top-Count for 1 min/well. The data from screening and dose-displacement experiments were analyzed using Microsoft Excel and the curve fitting functions in GraphPad PRISM™, v. […]

[2] = biological target: recombinant human kappa opioid receptor (κ) (Homo sapiens (Human), UniProt P41145); assay: κ-opioid receptor radioligand binding assay ([3H]-U69,593); conditions: binding affinity
Method: κ-Opioid Receptor Binding Assay Procedures: Membranes from HEK-293 cells, CHO cells or U-2 OS cells expressing the recombinant human kappa opioid receptor (κ) were prepared by lysing cells in ice cold hypotonic buffer (2.5 mM MgCl2, 50 mM HEPES, pH 7.4) (10 mL/10 cm dish) followed by homogenization with a tissue grinder/Teflon pestle. Membranes from a cell line naturally expressing kappa opioid receptor can also be used. Membranes were collected by centrifugation at 30,000×g for 15 min at 4° C. and pellets were resuspended in hypotonic buffer to a final concentration of 1-3 mg/mL. Protein concentrations were determined using the BioRad protein assay reagent with bovine serum albumen as standard. Aliquots of κ receptor membranes were stored at −80° C.
Radioligand dose displacement assays used 0.4 nM [^3H]-U69,593 (GE Healthcare, Piscataway, N.J.; 40 Ci/mmole) with 15 μg membrane protein (recombinant opioid receptor expressed in HEK 293 cells; in-house prep) in a final volume of 200 μl binding buffer (5% DMSO, 50 mM Trizma base, pH 7.4). Non-specific binding was determined in the presence of 10 μM unlabeled naloxone or U69,593. All reactions were performed in 96-well polypropylene plates for 1 hour at a temperature of about 25° C. Binding reactions were terminated by rapid filtration onto 96-well Unifilter GF/C filter plates (Perkin Elmer, Shelton, Conn.) presoaked in 0.5% polyethylenimine (Sigma). Harvesting was performed using a 96-well tissue harvester (Perkin Elmer, Shelton, Conn.) followed by five filtration washes with 200 μl ice-cold binding buffer. Filter plates were subsequently dried at 50° C. for 1-2 hours. Fifty μl/well scintillation cocktail (Perkin Elmer, Shelton, Conn.) was added and plates were counted in a Packard Top-Count for 1 min/well.

μ-opioid receptor [3] = biological target: T1, μ-opioid receptor (Homo sapiens (Human), UniProt P35372); assay: μ-opioid receptor [35S]GTPγS functional assay, HEK-293 or CHO cells (Table 4); assay type: biochemical; conditions: relative to DAMGO
Method in brief: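 Membranes from HEK-293, CHO or U-2 OS cells (or commercial) expressing recombinant μ receptor; 0.20 nM [35S]GTPγS, 3 mM GDP, saponin, in 100 mM NaCl/10 mM MgCl2/20 mM HEPES pH 7.4.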

κ-opioid receptor [4] = biological target: T2, κ-opioid receptor (Homo sapiens (Human), UniProt P41145); assay: κ-opioid receptor [35S]GTPγS functional assay, HEK-293 or CHO cells (Table 4); assay type: biochemical
Method: (§1) κ-Opioid Receptor Functional Assay Procedures: Functional [^35S]GTPγS binding assays were conducted as follows. κ opioid receptor membrane solution was prepared by sequentially adding final concentrations of 0.026 μg/μl κ membrane protein (in-house), 10 μg/mL saponin, 3 μM GDP and 0.20 nM [^35S]GTPγS to binding buffer (100 mM NaCl, 10 mM MgCl2, 20 mM HEPES, pH 7.4) on ice. The prepared membrane solution (190 μl/well) was transferred to 96-shallow well polypropylene plates containing 10 μl of 20× concentrated stock solutions of agonist prepared in DMSO. Plates were incubated for 30 min at a temperature of about 25° C. with shaking. Reactions were terminated by rapid filtration onto 96-well Unifilter GF/B filter plates (Perkin Elmer, Shelton, Conn.) using a 96-well tissue harvester (Packard) and followed by three filtration washes with 200 μl ice-cold binding buffer (10 mM NaH2PO4, 10 mM Na2HPO4, pH 7.4). Filter plates were subsequently dried at 50° C. for 2-3 hours. Fifty μl/well scintillation cocktail (Perkin Elmer, Shelton, Conn.) was added and plates were counted in a Packard Top-Count for 1 min/well.
κ GTP Emax (%) is the maximal effect elicited by a compound relative to the effect elicited by U69,593.
In TABLE 4, activity response of certain Compounds of the Invention to the μ- and κ-opioid receptors was determined as described above for functional assays using HEK-293 or CHO cells.

μ-opioid receptor [5] = biological target: T1, μ-opioid receptor; assay: μ-opioid receptor [35S]GTPγS functional assay, U-2 OS cells (Table 5); assay type: biochemical; conditions: relative to DAMGO
Method in brief: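 Membranes (0.026 mg/mL) from cells expressing recombinant human μ-opioid receptor in a U-2 OS background were incubated with 0.20 nM [35S]GTPγS, 3 mM GDP and saponin in 20 mM HEPES pH 7.4, 100 mM NaCl, 10 mM MgCl2 for 30 min at about 25 °C. Filter-bound radioactivity counted; sigmoidal dose-response fits gave values, Emax relative to DAMGO.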

κ-opioid receptor [6] = biological target: T2, κ-opioid receptor; assay: κ-opioid receptor [35S]GTPγS functional assay, U-2 OS cells (Table 5); assay type: biochemical
Method in brief: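 [35S]GTPγS binding in κ receptor membranes (0.026 μg/μl protein) with 10 μg/mL saponin, 3 μM GDP and 0.20 nM [35S]GTPγS in pH 7.4 HEPES/NaCl/MgCl2 buffer. Agonist incubation lasted 30 min at about 25 °C, followed by filtration and scintillation counting. Emax is expressed relative to U69,593.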

μ-opioid receptor [7] = biological target: T1, μ-opioid receptor; assay: μ-opioid receptor [35S]GTPγS functional assay, HEK-293 cells (Table 6); assay type: biochemical
Method in brief: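 [35S]GTPγS (0.20 nM) binding in HEK-293 membranes expressing recombinant receptor (0.026 mg/mL protein), with GDP (3 mM) and saponin, HEPES buffer pH 7.4, 30 min at about 25° C. Bound radioactivity collected by filtration and counted. Emax (%) expressed relative to DAMGO from sigmoidal dose-response fits.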

κ-opioid receptor [8] = biological target: T2, κ-opioid receptor; assay: κ-opioid receptor [35S]GTPγS functional assay, HEK-293 cells (Table 6); assay type: biochemical
Method: as §1, with “min/well. […]” for “min/well.”
The following TABLE 6 provides results on the activity response of certain Compounds of the Invention at the μ- and κ-opioid receptors determined as described above using HEK-293 cells.

`N=C(N)NCCNC(=O)[C@@H]1C[C@]23CCN(CC4CC4)[C@H](Cc4ccc(O)cc42)[C@]3(O)C1` [Compound 6, (2R,3aS,4R,9bS)-12-(cyclopropylmethyl)-N-(2-guanidinoethyl)-3a,8-dihydroxy-1,2,3,3a,4,5-hexahydro-4,9b-(epimino-ethano)cyclopenta[a]naphthalene-2-carboxamide] was tested, and the Ki [1] was 10300 ± 2140 nM, the Ki [2] was 0.098 ± 0.032 nM and the Emax (μ-opioid receptor [3]) was 0%. For the same compound, the Emax (κ-opioid receptor [4]; relative to U69,593) was 48.6 ± 0.98%, the EC50 (κ-opioid receptor [4]; κ GTP) was 0.86 ± 0.16 nM and the Emax (μ-opioid receptor [5]) was 57 ± 2.08%. For the same compound, the Emax (κ-opioid receptor [6]; relative to U69,593) was 98 ± 3.21% and the EC50 (κ-opioid receptor [6]; κ GTP) was 0.87 ± 0.16 nM.

With `CN1CC[C@]23C[C@H](C(=O)NCCc4ccccc4)C[C@@]2(O)[C@H]1Cc1ccc(O)cc13` [Compound 108, (2S,3aS,4R,9bS)-3a,8-dihydroxy-12-methyl-N-phenethyl-1,2,3,3a,4,5-hexahydro-4,9b-(epiminoethano)cyclo-penta[a]naphthalene-2-carboxamide] the Ki [2] was 9.29 ± 2.14 nM, the Emax (μ-opioid receptor [7]; relative to DAMGO) was 83.3 ± 5.17% and the EC50 (μ-opioid receptor [7]; μ GTP) was 12.4 ± 2.76 nM. It also gave an Emax (κ-opioid receptor [8]; relative to U69,593) of 40.6 ± 3.3% and an EC50 (κ-opioid receptor [8]; κ GTP) of 138 ± 35 nM.
